According to patent publication US8680137B2, “Agents and methods for treating ischemic and other diseases” (Nono Inc., priority 2009, dated 2014):
Where two headings read alike, the source gives them in different places.

Assays:
[1] = tested on: HeLa cervical cancer cells; experiment: Cancer cell proliferation, HeLa; assay type: cell-based, human; settings: FIG. 79
Method: (§1) To determine the breadth of efficacy in cancers, we examined the efficacy of a range of TRPM7 inhibitors for their ability to inhibit cell proliferation in cancer cell lines. Representative figures are included as examples.
(§2) Cells (Table 1) were grown to 70% confluency, trypsinized, counted, and seeded in 96-well flat-bottom plates at a final concentration of 2.5×10^3-5.0×10^3 cells/well in growth media containing 5% FBS (Day 0). Other well sizes and cell densities were used successfully as well. Cells were allowed to incubate in growth media for 24 hours to allow for maximum adhesion. Treatment with the test agent began on Day 1 and continued for 72 hours either with or without retreatment. At the 72 hour time point, viable cell numbers are quantified by the CellTiter-Glo® cell viability assay as described above, or using standard MTT, SRB or BrDU assays. Experiments were repeated at least twice with the same concentrations to determine growth inhibitory activity.
(§3) Data Collection—For the cell proliferation studies, data from each experiment was collected and expressed as % Cell Growth using the following calculation: % Cell Growth=(ftest/fvehicle)×100 Where ftest is the luminescent signal of the tested sample, and fvehicle is the luminescence of the vehicle in which the drug is dissolved (or appropriate measure for the other viability/proliferation measures). […]

[2] = tested on: H292 non small cell lung cancer; experiment: Cancer cell proliferation, H292; assay type: cell-based; settings: for IC50: Homo sapiens
Method: as §1, §2
as §3, with “measures). Dose response graphs and IC50 values were generated using standard software using the following variable slope equation:” for “measures).”

[3] = tested on: HCT-116 colon cancer; experiment: Cancer cell proliferation, HCT-116; assay type: cell-based; settings: for IC50: Homo sapiens
Method: as §1, §2
as §3, with “measures). Dose response graphs and IC50 values were generated using standard software using the following variable slope equation:” for “measures).”

[4] = biological target: T1, TRPM4 (Homo sapiens, UniProt Q8TD43); experiment: Agonist-induced Ca2+ changes in HEK293 cells transfected with TRPM4; assay type: cell-based
T1 construct: expressed in transfected cells; host or cells: HEK293
Method: (§4) To examine selectivity of a subset of these TRPM7 inhibitors, experiments were performed to determine whether TRPM7 antagonists cross-react with other ionic channels and receptors. […] From a therapeutic perspective, knowledge of cross-reactivity of candidate drugs could shed light on other ischemic mechanisms and raise awareness of potential side effects. M21 has no effect on voltage-sensitive Na+, and Ca2+ currents in cultured cortical neurons […] TRPM7-expressing HEK293 cells, but inhibits K+ currents by about 20% at membrane potentials of −10 mV. M21 had no effect on agonist-induced Ca2+ changes in HEK293 cells transfected with constructs for TRPM2, TRPM4, TRPM6, TRPV1, TRPC2 and TRPA1. M21 also has no effect on NMDA and AMPA receptor currents in cultured neurons. […] Similar experiments were performed with other TRPM7 inhibitors including M5 and M11.

[5] = biological target: T2, TRPM6 (Homo sapiens, UniProt Q9BX84); experiment: Agonist-induced Ca2+ changes in HEK293 cells transfected with TRPM6; assay type: cell-based
T2 construct: expressed in transfected cells; host or cells: HEK293
T2 sequence (Q9BX84 whole entry, species assumed): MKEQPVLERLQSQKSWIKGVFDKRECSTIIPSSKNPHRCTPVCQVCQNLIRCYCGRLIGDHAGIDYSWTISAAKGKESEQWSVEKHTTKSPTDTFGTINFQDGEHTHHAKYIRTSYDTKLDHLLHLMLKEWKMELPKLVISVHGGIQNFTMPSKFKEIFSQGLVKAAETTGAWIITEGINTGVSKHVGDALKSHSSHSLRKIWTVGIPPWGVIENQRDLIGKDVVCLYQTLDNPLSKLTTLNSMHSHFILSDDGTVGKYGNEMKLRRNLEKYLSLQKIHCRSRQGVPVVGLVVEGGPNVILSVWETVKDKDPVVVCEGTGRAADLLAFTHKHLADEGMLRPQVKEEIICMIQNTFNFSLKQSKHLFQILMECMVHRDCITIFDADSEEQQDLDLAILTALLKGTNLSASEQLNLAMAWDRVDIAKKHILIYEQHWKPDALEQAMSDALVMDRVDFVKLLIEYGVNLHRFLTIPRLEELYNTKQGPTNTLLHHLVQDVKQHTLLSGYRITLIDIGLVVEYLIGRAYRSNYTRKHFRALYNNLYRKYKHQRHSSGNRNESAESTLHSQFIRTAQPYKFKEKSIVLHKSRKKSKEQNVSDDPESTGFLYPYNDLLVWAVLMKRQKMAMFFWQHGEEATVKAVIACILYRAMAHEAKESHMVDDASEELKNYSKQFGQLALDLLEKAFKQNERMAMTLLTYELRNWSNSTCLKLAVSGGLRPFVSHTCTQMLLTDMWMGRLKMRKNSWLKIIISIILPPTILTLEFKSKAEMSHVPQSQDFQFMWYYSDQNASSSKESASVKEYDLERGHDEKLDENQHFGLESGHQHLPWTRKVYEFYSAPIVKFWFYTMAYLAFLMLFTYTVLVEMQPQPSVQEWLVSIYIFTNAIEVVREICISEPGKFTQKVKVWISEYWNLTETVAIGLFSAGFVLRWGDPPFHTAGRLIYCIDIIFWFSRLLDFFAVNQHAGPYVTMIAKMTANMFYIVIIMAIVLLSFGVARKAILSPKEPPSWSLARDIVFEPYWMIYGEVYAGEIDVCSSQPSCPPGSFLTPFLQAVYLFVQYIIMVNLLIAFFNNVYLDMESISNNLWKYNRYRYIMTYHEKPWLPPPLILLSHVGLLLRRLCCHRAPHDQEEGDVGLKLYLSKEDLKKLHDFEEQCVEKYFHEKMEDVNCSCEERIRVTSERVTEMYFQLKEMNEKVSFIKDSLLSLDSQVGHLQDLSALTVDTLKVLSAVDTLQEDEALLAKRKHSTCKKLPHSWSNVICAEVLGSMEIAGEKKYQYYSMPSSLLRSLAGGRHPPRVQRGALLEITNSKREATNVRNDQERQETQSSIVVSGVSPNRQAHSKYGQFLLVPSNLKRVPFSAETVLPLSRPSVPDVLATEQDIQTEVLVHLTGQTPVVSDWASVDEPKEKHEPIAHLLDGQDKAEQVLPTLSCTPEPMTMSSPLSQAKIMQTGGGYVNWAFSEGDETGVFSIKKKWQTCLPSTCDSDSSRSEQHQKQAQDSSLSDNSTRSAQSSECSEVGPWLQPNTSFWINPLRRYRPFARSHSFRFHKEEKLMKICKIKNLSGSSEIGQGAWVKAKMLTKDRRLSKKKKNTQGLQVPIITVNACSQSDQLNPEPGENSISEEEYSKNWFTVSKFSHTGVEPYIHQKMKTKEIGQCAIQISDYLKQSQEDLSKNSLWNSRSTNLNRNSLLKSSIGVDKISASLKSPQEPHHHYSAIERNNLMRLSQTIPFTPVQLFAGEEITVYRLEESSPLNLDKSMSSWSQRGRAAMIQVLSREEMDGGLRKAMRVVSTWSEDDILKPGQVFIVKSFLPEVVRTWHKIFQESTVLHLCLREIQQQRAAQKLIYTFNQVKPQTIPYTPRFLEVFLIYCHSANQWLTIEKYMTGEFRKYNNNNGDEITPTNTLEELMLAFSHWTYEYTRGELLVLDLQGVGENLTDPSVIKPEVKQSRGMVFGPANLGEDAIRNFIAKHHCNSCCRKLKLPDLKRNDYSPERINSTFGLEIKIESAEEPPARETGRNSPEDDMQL
Method: as §4

[6] = biological target: T3, TRPV1 (Homo sapiens, UniProt Q8NER1); experiment: Agonist-induced Ca2+ changes in HEK293 cells transfected with TRPV1; assay type: cell-based
T3 construct: expressed in transfected cells; host or cells: HEK293
T3 sequence (Q8NER1 whole entry, species assumed): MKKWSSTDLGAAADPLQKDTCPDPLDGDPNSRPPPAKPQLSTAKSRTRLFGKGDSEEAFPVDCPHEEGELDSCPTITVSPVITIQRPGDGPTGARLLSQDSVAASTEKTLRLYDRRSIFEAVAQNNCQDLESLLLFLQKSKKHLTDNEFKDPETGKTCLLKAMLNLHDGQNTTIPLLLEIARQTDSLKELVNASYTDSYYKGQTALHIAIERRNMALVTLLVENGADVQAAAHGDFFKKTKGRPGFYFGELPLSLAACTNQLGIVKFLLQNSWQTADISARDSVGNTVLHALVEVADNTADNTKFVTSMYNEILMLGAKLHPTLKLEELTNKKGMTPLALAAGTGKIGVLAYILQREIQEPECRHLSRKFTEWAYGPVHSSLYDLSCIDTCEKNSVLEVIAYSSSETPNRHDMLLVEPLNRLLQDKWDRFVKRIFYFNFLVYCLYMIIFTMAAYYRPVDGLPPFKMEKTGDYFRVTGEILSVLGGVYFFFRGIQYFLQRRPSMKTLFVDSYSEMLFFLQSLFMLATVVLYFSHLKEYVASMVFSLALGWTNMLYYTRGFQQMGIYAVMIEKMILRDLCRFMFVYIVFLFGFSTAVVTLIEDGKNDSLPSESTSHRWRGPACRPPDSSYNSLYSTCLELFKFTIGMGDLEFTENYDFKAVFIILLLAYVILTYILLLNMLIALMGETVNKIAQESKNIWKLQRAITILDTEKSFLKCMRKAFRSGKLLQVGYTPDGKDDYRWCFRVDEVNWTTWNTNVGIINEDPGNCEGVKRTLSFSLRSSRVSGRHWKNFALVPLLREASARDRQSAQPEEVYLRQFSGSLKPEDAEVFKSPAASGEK
Method: as §4

[7] = biological target: T4, TRPC2 (Mus musculus, UniProt Q9R244); experiment: Agonist-induced Ca2+ changes in HEK293 cells transfected with TRPC2; assay type: cell-based
T4 construct: expressed in transfected cells; host or cells: HEK293
T4 sequence (Q9R244 whole entry, species assumed): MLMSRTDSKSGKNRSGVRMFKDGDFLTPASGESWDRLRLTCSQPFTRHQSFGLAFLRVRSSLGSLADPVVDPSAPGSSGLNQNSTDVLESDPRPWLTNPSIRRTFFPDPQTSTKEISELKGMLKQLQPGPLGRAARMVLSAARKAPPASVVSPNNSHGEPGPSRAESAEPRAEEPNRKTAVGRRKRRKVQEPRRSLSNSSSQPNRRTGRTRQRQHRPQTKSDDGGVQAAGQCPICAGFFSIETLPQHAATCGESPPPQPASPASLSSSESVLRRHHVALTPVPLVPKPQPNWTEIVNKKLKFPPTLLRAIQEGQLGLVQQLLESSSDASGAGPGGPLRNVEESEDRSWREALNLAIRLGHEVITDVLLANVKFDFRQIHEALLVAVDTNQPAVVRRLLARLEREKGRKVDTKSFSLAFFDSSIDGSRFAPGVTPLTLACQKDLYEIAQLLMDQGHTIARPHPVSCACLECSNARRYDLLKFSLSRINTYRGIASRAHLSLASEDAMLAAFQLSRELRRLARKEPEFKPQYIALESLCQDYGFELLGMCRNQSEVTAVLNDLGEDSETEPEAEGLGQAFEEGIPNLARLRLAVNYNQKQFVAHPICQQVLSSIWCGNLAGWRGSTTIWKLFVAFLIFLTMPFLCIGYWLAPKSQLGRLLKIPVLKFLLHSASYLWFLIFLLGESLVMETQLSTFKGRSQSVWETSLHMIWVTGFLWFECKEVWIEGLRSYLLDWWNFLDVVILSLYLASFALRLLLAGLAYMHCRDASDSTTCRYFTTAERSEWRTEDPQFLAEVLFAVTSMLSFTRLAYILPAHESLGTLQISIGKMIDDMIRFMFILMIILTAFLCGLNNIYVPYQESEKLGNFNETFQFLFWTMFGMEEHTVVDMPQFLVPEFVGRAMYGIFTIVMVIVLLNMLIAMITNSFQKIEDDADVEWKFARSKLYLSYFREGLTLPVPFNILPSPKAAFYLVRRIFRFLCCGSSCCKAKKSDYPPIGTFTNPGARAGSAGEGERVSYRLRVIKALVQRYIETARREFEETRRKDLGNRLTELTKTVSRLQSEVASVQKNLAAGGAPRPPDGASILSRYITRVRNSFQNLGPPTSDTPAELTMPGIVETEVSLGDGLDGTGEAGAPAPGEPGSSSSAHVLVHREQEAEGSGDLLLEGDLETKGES
Method: as §4

[8] = tested on: NMDA receptor; experiment: NMDA receptor currents in cultured neurons; assay type: cell-based
Method: as §4

[9] = tested on: AML12 hepatocytes; experiment: Anoxia (OGD) in AML12 hepatocyte cultures; assay type: cell-based, mouse; settings: 2 hour, 4 hour or 6 hour anoxia
Method: The ability of TRPM7 inhibitors to protect other types of cell cultures following exposure to anoxia, including non-neuronal cell cultures, has also been tested. In general, cultures of growing cells are exposed to a 1-6 hour period of anoxia, followed by addition of a TRPM7 at a range of concentrations upon removal from anoxic conditions. […] This implies that TRPM7 inhibitors may be useful both as a treatment for anoxic damage to patients presenting symptoms of a disorder associated with anoxic damage, or as a preventative measure. Such preventative measures can be chronic, such as treatment to protect against damage from heart attacks or strokes, or acute, to be given prior to or during surgical procedures, which may include but not be limited to procedures that involve endovascular invasion and have the possibility of dislodging material that may block blood flow through arteries. […]

[10] = biological target: TRPM7 (Mus musculus, UniProt Q923J1); experiment: IC50 for TRPM7 (assay not stated); design: expressed in transfected cells; host or cells: HEK293 cells, tet-induced TRPM7

Structure (SMILES) | proliferation (BrDU incorporation) [1] | Demonstrated Reduction of Proliferation at or below 10 μM Inhibitor concentration ([2]; H292, >20% inhibition at 48-96 hours, MTT, SRB, luminescence or BrDU) | IC50 ([2]; NCI-H292, 72 h, H292, Exp 1, 72 hours, read-out: IC50) [µM] | IC50 ([2]; NCI-H292, 72 h, H292, Exp 2, 72 hours, read-out: IC50) [µM] | IC50 ([2]; NCI-H292, H292, mean of Exp 1 and Exp 2, read-out: Mean IC50) [µM] | Demonstrated Reduction of Proliferation at or below 10 μM Inhibitor concentration ([3]; HCT-116, >20% inhibition at 48-96 hours, MTT, SRB, luminescence or BrDU) | IC50 ([3]; HCT-116, 72 h, HCT-116, Exp 1, 72 hours, read-out: IC50) [µM] | IC50 ([3]; HCT-116, 72 h, HCT-116, Exp 2, 72 hours, read-out: IC50) [µM] | IC50 ([3]; HCT-116, HCT-116, mean of Exp 1 and Exp 2, read-out: Mean IC50) [µM] | effect on agonist-induced Ca2+ changes [4] | effect on agonist-induced Ca2+ changes [5] | effect on agonist-induced Ca2+ changes [6] | effect on agonist-induced Ca2+ changes [7] | effect on NMDA receptor currents [8] | survival after anoxia [9] | IC50 [10] [µM]
COc1cc2c(cc1OC)C(c1sc3ccccc3c1Cl)=NCC2 [Compound M6] | significantly reduce proliferation | H292 non small cell lung cancer | 18.5 | 15.9 | 17.2 | HCT-116 | 14.7 | 17.2 | 16 | – | – | – | – | – | – | –
Cc1c(Cc2ccc(Cl)c(Cl)c2)c(=O)oc2cc(O)ccc12 [Compound M21] | – | – | – | – | – | – | – | – | – | no effect | no effect | no effect | no effect | no effect | can promote survival | 1 to 2
